Reference: ChEMBL document CHEMBL1132079, “Combined NK1 and NK2 tachykinin receptor antagonists: synthesis and structure-activity relationships of novel oxazolidine analogues” (Bioorg Med Chem Lett, 1999)
Activity calls are given as the source filed them. The rule behind the calls is not given here.

What was measured:
[1] = target: T1, Substance-K receptor (Cavia porcellus) (UniProt Q64077); assay: Antagonist activity against Neurokinin 2 (NK2) receptor from guinea pig ileum at a concentration of 1 ug/mL; assay type: functional, tissue-based
T1 sequence (whole entry): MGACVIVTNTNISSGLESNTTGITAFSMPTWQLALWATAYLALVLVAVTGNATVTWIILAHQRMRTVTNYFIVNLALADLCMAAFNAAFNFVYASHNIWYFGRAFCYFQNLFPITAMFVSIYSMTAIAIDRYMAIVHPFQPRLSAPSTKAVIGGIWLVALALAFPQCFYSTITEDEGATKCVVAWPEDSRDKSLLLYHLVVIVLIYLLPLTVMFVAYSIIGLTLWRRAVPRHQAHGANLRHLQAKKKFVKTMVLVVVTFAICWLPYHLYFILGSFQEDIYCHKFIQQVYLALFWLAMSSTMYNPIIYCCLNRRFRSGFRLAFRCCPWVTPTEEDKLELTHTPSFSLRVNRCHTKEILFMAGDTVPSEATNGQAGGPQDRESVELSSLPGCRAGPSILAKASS

[2] = target: Substance-P receptor (Cavia porcellus) (UniProt P30547); assay: Inhibitory activity against Neurokinin 1 (NK1) receptor from guinea pig lung at a concentration of 1 ug/mL
Substance-P receptor (Cavia porcellus), sequence (P30547 whole entry): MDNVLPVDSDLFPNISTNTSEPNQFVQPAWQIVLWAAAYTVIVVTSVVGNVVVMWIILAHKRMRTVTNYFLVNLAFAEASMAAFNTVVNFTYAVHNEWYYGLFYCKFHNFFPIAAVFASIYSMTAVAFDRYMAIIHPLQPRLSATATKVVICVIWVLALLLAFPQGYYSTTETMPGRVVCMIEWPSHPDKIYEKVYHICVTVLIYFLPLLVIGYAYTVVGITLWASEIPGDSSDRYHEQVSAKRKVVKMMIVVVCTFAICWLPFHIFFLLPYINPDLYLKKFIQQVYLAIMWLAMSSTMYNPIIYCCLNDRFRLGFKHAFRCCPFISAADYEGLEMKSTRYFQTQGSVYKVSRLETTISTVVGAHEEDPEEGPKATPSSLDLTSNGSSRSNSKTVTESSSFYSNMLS

SMILES | inhibition [1] | inhibition [2]
NC(=O)C1(c2ccccc2)CCN(CC[C@@]2(c3ccc(Cl)c(Cl)c3)CN(C(=O)c3ccccc3)CO2)CC1 | 87% | 75%
COc1cc(C(=O)N2CO[C@](CCN3CCC(n4c(O)nc5ccccc54)CC3)(c3ccc(Cl)c(Cl)c3)C2)cc(OC)c1OC | 85% | 100%
CC(=O)Nc1ccc(C(=O)N2CO[C@](CCN3CCC(C(N)=O)(c4ccccc4)CC3)(c3ccc(Cl)c(Cl)c3)C2)cc1 | 85% | 9%
COc1cc(C(=O)N2CO[C@](CCN3CCC4(CC3)OCc3ccccc34)(c3ccc(Cl)c(Cl)c3)C2)cc(OC)c1OC | 91% | 98%
NC(=O)C1(c2ccccc2)CCN(CC[C@@]2(c3ccc(Cl)c(Cl)c3)CN(C(=O)c3cc4ccccc4o3)CO2)CC1 | 59% | inactive
NC(=O)C1(c2ccccc2)CCN(CC[C@@]2(c3ccc(Cl)c(Cl)c3)CN(C(=O)c3cccnc3)CO2)CC1 | 48% | 38%
NC(=O)C1(c2ccccc2)CCN(CC[C@@]2(c3ccc(Cl)c(Cl)c3)CN(C(=O)c3cnc4ccccc4n3)CO2)CC1 | 71% | 38%
COc1cc(C(=O)N2CO[C@](CCN3CCN(c4ccccn4)CC3)(c3ccc(Cl)c(Cl)c3)C2)cc(OC)c1OC | 42% | 100%
COc1cc(C(=O)N2CO[C@](CCN3CCC4(CC3)SCc3ccccc34)(c3ccc(Cl)c(Cl)c3)C2)cc(OC)c1OC | 89% | 100%
COc1cc(C(=O)N2CO[C@](CCN3CCC4(CC3)CN(c3ccccc3)C(=O)O4)(c3ccc(Cl)c(Cl)c3)C2)cc(OC)c1OC | 12% | 86%
NC(=O)C1(c2ccccc2)CCN(CC[C@@]2(c3ccc(Cl)c(Cl)c3)CN(C(=O)c3ccccn3)CO2)CC1 | 73% | 39%
COc1cc(CC(=O)N2CO[C@](CCN3CCC(C(N)=O)(c4ccccc4)CC3)(c3ccc(Cl)c(Cl)c3)C2)cc(OC)c1OC | inactive | 87%
COc1ccc(C(=O)N2CO[C@](CCN3CCC(C(N)=O)(c4ccccc4)CC3)(c3ccc(Cl)c(Cl)c3)C2)cc1OC | 88% | 93%
CC(C)Oc1cccc(CC(=O)N2CO[C@](CCN3CCC(C(N)=O)(c4ccccc4)CC3)(c3ccc(Cl)c(Cl)c3)C2)c1 | 18% | 59%
Cc1cc(C)cc(C(=O)N2CO[C@](CCN3CCC(C(N)=O)(c4ccccc4)CC3)(c3ccc(Cl)c(Cl)c3)C2)c1 | 90% | 100%
COc1cc(C(=O)N2CO[C@](CCN3CCC(O)(c4ccccc4)CC3)(c3ccc(Cl)c(Cl)c3)C2)cc(OC)c1OC | 58% | 100%
NC(=O)C1(c2ccccc2)CCN(CC[C@@]2(c3ccc(Cl)c(Cl)c3)CN(C(=O)c3ccc(Cl)cc3)CO2)CC1 | 88% | 50%
COc1cc(C(=O)N2CO[C@](CCN3CCN(c4ncccn4)CC3)(c3ccc(Cl)c(Cl)c3)C2)cc(OC)c1OC | 48% | 100%
COc1cc(C(=O)N2CO[C@](CCN3CCC(C(=O)Nc4ccccc4)CC3)(c3ccc(Cl)c(Cl)c3)C2)cc(OC)c1OC | 72% | 44%
NC(=O)C1(c2ccccc2)CCN(CC[C@@]2(c3ccc(Cl)c(Cl)c3)CN(C(=O)c3cnccn3)CO2)CC1 | 47% | 23%
COc1cc(OC)cc(C(=O)N2CO[C@](CCN3CCC(C(N)=O)(c4ccccc4)CC3)(c3ccc(Cl)c(Cl)c3)C2)c1 | 97% | 93%

SMILES | inhibition [1] | inhibition [2]
NC(=O)C1(c2ccccc2)CCN(CC[C@@]2(c3ccc(Cl)c(Cl)c3)CN(C(=O)c3cccs3)CO2)CC1 | 83% | 33%
COC(=O)c1ccc(C(=O)N2CO[C@](CCN3CCC(C(N)=O)(c4ccccc4)CC3)(c3ccc(Cl)c(Cl)c3)C2)cc1 | 85% | 36%
NC(=O)C1(c2ccccc2)CCN(CC[C@@]2(c3ccc(Cl)c(Cl)c3)CN(C(=O)c3ccc4ccccc4n3)CO2)CC1 | 71% | inactive
COc1cc(C(=O)N2CO[C@](CCN3CCC4(CC3)CN(S(C)(=O)=O)c3ccccc34)(c3ccc(Cl)c(Cl)c3)C2)cc(OC)c1OC | 91% | 98%
COc1cccc(C(=O)N2CO[C@](CCN3CCC(C(N)=O)(c4ccccc4)CC3)(c3ccc(Cl)c(Cl)c3)C2)c1 | 82% | 100%
Cc1ccc(C(=O)N2CO[C@](CCN3CCC(C(N)=O)(c4ccccc4)CC3)(c3ccc(Cl)c(Cl)c3)C2)cc1 | 88% | 56%
COc1cc(C(=O)N2CO[C@](CCN3CCC(O)(c4cccnc4)CC3)(c3ccc(Cl)c(Cl)c3)C2)cc(OC)c1OC | 100% | 100%
COc1cc(C(=O)N2CO[C@](CCN3CCC(O)(c4ccccn4)CC3)(c3ccc(Cl)c(Cl)c3)C2)cc(OC)c1OC | 76% | 100%
COc1ccccc1C(=O)N1CO[C@](CCN2CCC(C(N)=O)(c3ccccc3)CC2)(c2ccc(Cl)c(Cl)c2)C1 | 87% | 100%
COc1cc(C(=O)N2CO[C@](CCN3CCC(C(N)=O)(c4ccccn4)CC3)(c3ccc(Cl)c(Cl)c3)C2)cc(OC)c1OC | 83% | 95%
COc1ccc(S(=O)(=O)N2CO[C@](CCN3CCC(C(N)=O)(c4ccccc4)CC3)(c3ccc(Cl)c(Cl)c3)C2)cc1OC | 10% | 71%
COc1cc(C(=O)N2CO[C@](CCN3CCC4(CC3)CN(Cc3ccccc3)C(=O)O4)(c3ccc(Cl)c(Cl)c3)C2)cc(OC)c1OC | 44% | 86%
NC(=O)C1(c2ccccc2)CCN(CC[C@@]2(c3ccc(Cl)c(Cl)c3)CN(C(=O)c3ccncc3)CO2)CC1 | 57% | 65%
COc1cc(C(=O)N2CO[C@](CCN3CCC(C(=O)c4ccc(Cl)cc4)CC3)(c3ccc(Cl)c(Cl)c3)C2)cc(OC)c1OC | 54% | 97%
N#Cc1ccc(C(=O)N2CO[C@](CCN3CCC(C(N)=O)(c4ccccc4)CC3)(c3ccc(Cl)c(Cl)c3)C2)cc1 | 79% | 29%
COc1cc(C(=O)N2CO[C@](CCN3CCC(C(C)=O)(c4ccccc4)CC3)(c3ccc(Cl)c(Cl)c3)C2)cc(OC)c1OC | 57% | 83%
NC(=O)C1(c2ccccc2)CCN(CC[C@@]2(c3ccc(Cl)c(Cl)c3)CN(C(=O)c3cc4ccccc4[nH]3)CO2)CC1 | 26% | 96%
COc1cc(C(=O)N2CO[C@](CCN3CCC(NC(=O)c4ccccc4)CC3)(c3ccc(Cl)c(Cl)c3)C2)cc(OC)c1OC | 44% | 89%
COc1cc(C(=O)N2CO[C@](CCN3CCC(NC(C)=O)(c4ccccc4)CC3)(c3ccc(Cl)c(Cl)c3)C2)cc(OC)c1OC | 62% | 100%
COc1ccc(C(=O)N2CO[C@](CCN3CCC(C(N)=O)(c4ccccc4)CC3)(c3ccc(Cl)c(Cl)c3)C2)c(OC)c1 | 85% | 78%
COc1cccc(OC)c1C(=O)N1CO[C@](CCN2CCC(C(N)=O)(c3ccccc3)CC2)(c2ccc(Cl)c(Cl)c2)C1 | 83% | 74%
